# How the values were obtained:
# Assay type in all cases: cell-based, human
# SiHa cells = experiment: MTT antiproliferative assay, SiHa; settings: 72 h; for inhibition at 10 µM / inhibition at 30 µM: Homo sapiens; for inhibition at 10 µM: read-out: Growth inhibition, % ± SEM, 10 μM; for inhibition at 30 µM: read-out: Growth inhibition, % ± SEM, 30 μM
# Procedure: (§1) The antiproliferative properties of the newly synthesized compounds (9–20) and their starting materials (4 and 5) were determined on a panel of human adherent cancer cell lines. MCF-7, MDA-MB-231 and T47D were isolated from breast cancers differing in biochemical background, while A2780 cells were isolated from ovarian cancer. HeLa and SiHa are cervical cancer cell lines positive for HPV-18 and HPV-16, respectively, while C33-A cervical cancer cells are negative for HPV. Moreover, two oropharyngeal cancer cell lines were also utilized: the HPV-negative UPCI-SCC-131 and HPV-16 positive UPCI-SCC-154. The cancer selectivity of compounds was tested on the non-cancerous mouse embryo fibroblast cell line NIH/3T3. All cell lines were purchased from European Collection of Cell Cultures (ECCAC, Salisbury, UK) exception for SiHa and C33-A (American Tissue Culture Collection, Manassas, VA, USA) and HN-SCC-131 and UPCI-SCC-154 (German Collection of Microorganisms and Cell Cultures GmbH, Braunschweig, Germany). Cells were cultivated in minimal essential medium supplemented with 10% fetal bovine serum, 1% non-essential amino acids and an antibiotic–antimycotic mixture. The medium of oropharyngeal cancer cells additionally contained 2.0 mM L-glutamine. All media and supplements were obtained from Lonza Group Ltd., Basel, Switzerland. Near-confluent cancer cells were seeded onto a 96-well microplate at a density of 5,000 cells/well, except for C33-A which were seeded at 10,000/well. After overnight standing, new medium containing the tested compounds at 10 and 30 µM final concentration was added. After incubation for 72 h at 37 °C in humidified air containing 5% CO2, the living cells were assayed by the addition of 20 μL of 5 mg/ml 3-(4,5-dimethylthiazol-2-yl)-2,5-diphenyltetrazolium bromide (MTT) solution. MTT was converted by intact mitochondrial reductase and precipitated as purple crystals during a 4-h contact period. The medium was next removed and the precipitated formazan crystals were dissolved in 100 μL of DMSO during a 60-min period of shaking at 37 ^оC.
# (§2) All in vitro experiments were carried out twice with five parallels. Stock solutions of the tested substances (10 mM) were prepared in DMSO. […] Cisplatin (Ebewe Pharma GmbH, Unterach, Austria) was used as positive control.
# UPCI-SCC-131 cells = experiment: MTT antiproliferative assay, UPCI-SCC-131; settings: 72 h; for inhibition at 10 µM / inhibition at 30 µM: Homo sapiens, read-out: Growth inhibition, % ± SEM
# Procedure: as §1, §2
# UPCI-SCC-154 cells = experiment: MTT antiproliferative assay, UPCI-SCC-154; settings: 72 h; for inhibition at 10 µM / inhibition at 30 µM: Homo sapiens, read-out: Growth inhibition, % ± SEM
# Procedure: as §1, §2
# T47D cells = experiment: MTT antiproliferative assay, T47D; settings: 72 h; for inhibition at 10 µM / inhibition at 30 µM: Homo sapiens; for inhibition at 10 µM: read-out: Growth inhibition, % ± SEM, 10 μM; for inhibition at 30 µM: read-out: Growth inhibition, % ± SEM, 30 μM
# Procedure: as §1, §2
# C33-A cells = experiment: MTT antiproliferative assay, C33-A; settings: 72 h; for Growth inhibition; % ± SEM: C33-A; for inhibition at 10 µM / inhibition at 30 µM: Homo sapiens, C-33-A; for inhibition at 10 µM: read-out: Growth inhibition, % ± SEM, C33-A, 10 μM; for inhibition at 30 µM: read-out: Growth inhibition, % ± SEM, C33-A, 30 μM
# Procedure: as §1, §2
# A2780 cells = experiment: MTT antiproliferative assay, A2780; settings: 72 h; for inhibition at 10 µM / inhibition at 30 µM: Homo sapiens, A2780, 72 h, read-out: Growth inhibition, % ± SEM
# Procedure: as §1, §2
# MCF-7 cells = experiment: MTT antiproliferative assay, MCF-7; settings: 72 h; for inhibition at 10 µM / inhibition at 30 µM: Homo sapiens, MCF7, 72 h, read-out: Growth inhibition, % ± SEM
# Procedure: as §1, §2
# MDA-MB-231 cells = experiment: MTT antiproliferative assay, MDA-MB-231; settings: for Growth inhibition; % ± SEM: 72 h; for inhibition at 10 µM / inhibition at 30 µM: Homo sapiens, MDA-MB-231, 72 h, read-out: Growth inhibition, % ± SEM
# Procedure: as §1, §2
# HeLa cells = experiment: MTT antiproliferative assay, HeLa; settings: 72 h; for inhibition at 10 µM / inhibition at 30 µM: Homo sapiens; for inhibition at 10 µM: read-out: Growth inhibition, % ± SEM, 10 μM; for inhibition at 30 µM: read-out: Growth inhibition, % ± SEM, 30 μM
# Procedure: as §1, §2
SMILES,Growth inhibition; % ± SEM (SiHa cells; 10 μM),Growth inhibition; % ± SEM (SiHa cells; 30 μM),inhibition at 10 µM (SiHa cells) [%],inhibition at 30 µM (SiHa cells) [%],"inhibition at 10 µM (UPCI-SCC-131 cells; UPCI-SCC-131, 10 μM) [%]","inhibition at 30 µM (UPCI-SCC-131 cells; UPCI-SCC-131, 30 μM) [%]","inhibition at 10 µM (UPCI-SCC-154 cells; UPCI-SCC-154, 10 μM) [%]","inhibition at 30 µM (UPCI-SCC-154 cells; UPCI-SCC-154, 30 μM) [%]",inhibition at 10 µM (T47D cells) [%],inhibition at 30 µM (T47D cells) [%],inhibition at 10 µM (C33-A cells) [%],inhibition at 30 µM (C33-A cells) [%],"inhibition at 10 µM (A2780 cells; A2780, 10 μM) [%]","inhibition at 30 µM (A2780 cells; A2780, 30 μM) [%]","inhibition at 10 µM (MCF-7 cells; MCF-7, 10 μM) [%]","inhibition at 30 µM (MCF-7 cells; MCF-7, 30 μM) [%]",inhibition at 10 µM (MDA-MB-231 cells) [%],inhibition at 30 µM (MDA-MB-231 cells) [%],inhibition at 10 µM (HeLa cells) [%],inhibition at 30 µM (HeLa cells) [%],further results
"COc1ccc2c(c1)CCC1C2CCC2(C)C(=O)C(CP(=O)(c3ccc4ccccc4c3)c3ccc4ccccc4c3)CC12 (stereo not drawn) [Compound 18, [(3-methoxy-17-oxo-13α-oestra-1,3,5(10)-trien-16β-yl)methyl]di(naphtalen-2-yl)phosphine oxide]",– (Inhibition values <20% are not presented.),– (Inhibition values <20% are not presented.),,,,,,,,,,,,,,,,,,,"Growth inhibition; % ± SEM (UPCI-SCC-131 cells; UPCI-SCC-131, 10 μM, 10 µM): 46.39 ± 1.19%; Growth inhibition; % ± SEM (UPCI-SCC-131 cells; UPCI-SCC-131, 30 μM, 30 µM): 64.55 ± 1.29%; Growth inhibition; % ± SEM (UPCI-SCC-154 cells; UPCI-SCC-154, 10 μM): – (Inhibition values <20% are not presented.); Growth inhibition; % ± SEM (UPCI-SCC-154 cells; UPCI-SCC-154, 30 μM, 30 µM): – (Inhibition values <20% are not presented.); Growth inhibition; % ± SEM (T47D cells; 10 μM): – (Inhibition values <20% are not presented.); Growth inhibition; % ± SEM (T47D cells; 30 μM): – (Inhibition values <20% are not presented.); Growth inhibition; % ± SEM (C33-A cells; 10 μM): – (Inhibition values <20% are not presented.); Growth inhibition; % ± SEM (C33-A cells; 30 μM): 20.25 ± 1.01%; Growth inhibition; % ± SEM (A2780 cells; A2780, 10 μM): – (Inhibition values <20% are not presented.); Growth inhibition; % ± SEM (A2780 cells; A2780, 30 μM): – (Inhibition values <20% are not presented.); Growth inhibition; % ± SEM (MCF-7 cells; MCF-7, 10 μM): – (Inhibition values <20% are not presented.); Growth inhibition; % ± SEM (MCF-7 cells; MCF-7, 30 μM): – (Inhibition values <20% are not presented.); Growth inhibition; % ± SEM (MDA-MB-231 cells; MDA-MB-231, 10 μM): – (Inhibition values <20% are not presented.); Growth inhibition; % ± SEM (MDA-MB-231 cells; MDA-MB-231, 30 μM): – (Inhibition values <20% are not presented.); Growth inhibition; % ± SEM (HeLa cells; 10 μM): – (Inhibition values <20% are not presented.); Growth inhibition; % ± SEM (HeLa cells; 30 μM): – (Inhibition values <20% are not presented.)"
"COc1ccc2c(c1)CC[C@@H]1[C@@H]2CC[C@@]2(C)C(=O)[C@@H](CP(=O)(c3ccccc3)c3ccccc3)C[C@@H]12 [Compound 10, [(3-methoxy-17-oxo-13α-oestra-1,3,5(10)-trien-16β-yl)methyl]diphenylphosphine oxide]",,,< 20,< 20,39.8 ± 1.36,72.9 ± 1.7,< 20,24.3 ± 2.84,< 20,61.1 ± 1.06,22 ± 1.84,27.2 ± 1.85,< 20,64.2 ± 2.65,< 20,35.9 ± 3.3,< 20,< 20,< 20,21.5 ± 2.99,
"Cc1ccc(P(=O)(C[C@H]2C[C@H]3[C@@H]4CCc5cc(OCc6ccccc6)ccc5[C@H]4CC[C@@]3(C)C2=O)c2ccc(C)cc2)cc1 [Compound 16, [(3-benzyloxy-17-oxo-13α-oestra-1,3,5(10)-trien-16β-yl)methyl]di-p-tolylphosphine oxide]",,,< 20,< 20,49.5 ± 2.27,67.4 ± 1.11,< 20,31.6 ± 2.41,23.6 ± 1.22,64.5 ± 1.6,< 20,59.1 ± 0.69,< 20,67.3 ± 3.04,< 20,< 20,< 20,< 20,< 20,31.8 ± 2.27,
"CC12CCC3c4ccc(OCc5ccccc5)cc4CCC3C1CC(CP(=O)(c1ccc3ccccc3c1)c1ccc3ccccc3c1)C2=O (stereo not drawn) [Compound 20, [(3-benzyloxy-17-oxo-13α-oestra-1,3,5(10)-trien-16β-yl)methyl]di(naphtalen-2-yl)phosphine oxide]",– (Inhibition values <20% are not presented.),– (Inhibition values <20% are not presented.),,,,,,,,,,,,,,,,,,,"Growth inhibition; % ± SEM (UPCI-SCC-131 cells; UPCI-SCC-131, 10 μM, 10 µM): 48.25 ± 1.46%; Growth inhibition; % ± SEM (UPCI-SCC-131 cells; UPCI-SCC-131, 30 μM, 30 µM): 61.12 ± 1.32%; Growth inhibition; % ± SEM (UPCI-SCC-154 cells; UPCI-SCC-154, 10 μM, 10 µM): 30.97 ± 2.54%; Growth inhibition; % ± SEM (UPCI-SCC-154 cells; UPCI-SCC-154, 30 μM, 30 µM): 28.72 ± 1.11%; Growth inhibition; % ± SEM (T47D cells; 10 μM): 66.09 ± 0.76%; Growth inhibition; % ± SEM (T47D cells; 30 μM): 68.56 ± 1.81%; Growth inhibition; % ± SEM (C33-A cells; 10 μM): 27.94 ± 0.89%; Growth inhibition; % ± SEM (C33-A cells; 30 μM): 26.53 ± 1.06%; Growth inhibition; % ± SEM (A2780 cells; A2780, 10 μM): – (Inhibition values <20% are not presented.); Growth inhibition; % ± SEM (A2780 cells; A2780, 30 μM, 30 µM): – (Inhibition values <20% are not presented.); Growth inhibition; % ± SEM (MCF-7 cells; MCF-7, 10 μM, 10 µM): 28.24 ± 1.66%; Growth inhibition; % ± SEM (MCF-7 cells; MCF-7, 30 μM, 30 µM): 22.21 ± 2.78%; Growth inhibition; % ± SEM (MDA-MB-231 cells; MDA-MB-231, 10 μM): – (Inhibition values <20% are not presented.); Growth inhibition; % ± SEM (MDA-MB-231 cells; MDA-MB-231, 30 μM): – (Inhibition values <20% are not presented.); Growth inhibition; % ± SEM (HeLa cells; 10 μM): – (Inhibition values <20% are not presented.); Growth inhibition; % ± SEM (HeLa cells; 30 μM): – (Inhibition values <20% are not presented.)"
"COc1ccc2c(c1)CCC1C2CCC2(C)C(=O)C(CP(=O)(c3ccc4ccccc4c3)c3ccc4ccccc4c3)CC12 (stereo not drawn) [Compound 17, [(3-methoxy-17-oxo-13α-oestra-1,3,5(10)-trien-16α-yl)methyl]di(naphtalen-2-yl)phosphine oxide]",,,< 20,< 20,26.5 ± 1.7,45.3 ± 1.84,< 20,20.3 ± 2.69,< 20,27.1 ± 2.93,< 20,< 20,< 20,< 20,< 20,< 20,< 20,< 20,< 20,< 20,
"C[C@@]12CC[C@@H]3c4ccc(OCc5ccccc5)cc4CC[C@H]3[C@@H]1C[C@@H](CP(=O)(c1ccccc1)c1ccccc1)C2=O [Compound 11, [(3-benzyloxy-17-oxo-13α-oestra-1,3,5(10)-trien-16α-yl)methyl]diphenylphosphine oxide]",,,< 20,30.2 ± 2.99,20.9 ± 1.67,62.5 ± 1.4,< 20,38.6 ± 2.6,24.7 ± 1.7,59 ± 1.38,< 20,40.3 ± 0.95,< 20,21.9 ± 2.63,< 20,37.1 ± 0.72,< 20,< 20,< 20,23.8 ± 2.11,

# Source: PMC8405091, “Microwave-assisted Phospha-Michael addition reactions in the 13α-oestrone series and in vitro antiproliferative properties” (Journal of Enzyme Inhibition and Medicinal Chemistry, 2021)
